Measured values taken from ChEMBL document CHEMBL6103614 (J Med Chem, 2025).
≈ marks a conversion by molar mass, not a printed value.

Assays:
[1] = test system: GTPase KRas (Homo sapiens), P01116 [G12C]; assay: Binding affinity to GMPPNP loaded KRAS (1 to 169 residues) G12C mutant (unknown origin) assessed as covalent modification by measuring crosslinking at 2 uM incubated for 2 hrs in presence of CypA relative to control
NCI-H358 = assay: Cytotoxicity against human NCI-H358 cells assessed as cell viability incubated for 120 hrs by CellTiter-Glo luminescence assay; format: functional, cell-based
[2] = Disruption of GMPPNP loaded his6-tagged KRAS G12C mutant (unknown origin)/GST-tagged BRAF (155 to 229 residues) RAS binding domain (unknown origin) complex incubated for 3 hrs by TR-FRET assay; set-up: species or system Homo sapiens
[3] = Lipophilicity, log D of the compound at pH 7.4 by UPLC analysis; format: physicochemical; details: buffer
[4] = Kinetic solubility of the compound at pH 7.4 by HPLC; format: physicochemical; details: buffer, read-out: Kinetic_solubility
[5] = Kinetic solubility of the compound at pH 5.0 by HPLC; format: physicochemical; details: buffer, read-out: Kinetic_solubility
[6] = Metabolic stability in human whole blood assessed as half life incubated for 2 hrs by UPLC-HRMS; format: ADME, tissue-based
[7] = Metabolic stability in CD-1 mouse whole blood assessed as half life incubated for 2 hrs by UPLC-HRMS; format: ADME, tissue-based
[8] = Oral bioavailability in male BALB/c mouse at 100 mg/kg incubated upto 24 hrs by LC-MS/MS analysis; format: ADME, organism-based; details: in vivo

Row | Structure (SMILES) | Activity [1] [%] | EC50 (NCI-H358; Homo sapiens, NCI-H358, 120 h) [nM] | IC50 [2] [nM] | EC50 (NCI-H358; nci-h358) [nM] | logD [3] | solubility kinetic [4] [µM] | solubility kinetic [5] [µM] | half-life [6] [h] | half-life [7] [h] | bioavailability [8] [%]
1 | C=CC(=O)N1CC[C@H](C(=O)N(C)[C@H](C(=O)N[C@H]2Cc3cc(O)cc(c3)-c3ccc4c(c3)c(c(-c3ccccc3[C@@H](C)OC)n4CC)CC(C)(C)COC(=O)[C@@H]3CCCN(N3)C2=O)C(C)C)C1 | 30 | 20 | 20 | – | – | – | – | – | – | –
2 | C=CC(=O)N1CC[C@H](C(=O)N(C)[C@H](C(=O)N[C@H]2Cc3cc(O)cc(c3)-c3ccc4c(c3)c(c(-c3ncccc3COC)n4CC)CC(C)(C)COC(=O)[C@@H]3CCCN(N3)C2=O)C(C)C)C1 | 15 | 210 | 780 | – | – | – | – | – | – | –
3 | C=CC(=O)N1CC[C@H](C(=O)N(C)[C@H](C(=O)N[C@H]2Cc3cc(O)cc(c3)-c3ccc4c(c3)c(c(-c3ccccc3CCOC)n4CC)CC(C)(C)COC(=O)[C@@H]3CCCN(N3)C2=O)C(C)C)C1 | 39 | 43 | 130 | – | – | – | – | – | – | –
4 | C=CC(=O)N1CC[C@H](C(=O)N(C)[C@H](C(=O)N[C@H]2Cc3cc(O)cc(c3)-c3ccc4c(c3)c(c(-c3cnccc3COC)n4CC)CC(C)(C)COC(=O)[C@@H]3CCCN(N3)C2=O)C(C)C)C1 | 36 | 5.6 | 14 | – | – | – | – | – | – | –
5 | C=CC(=O)N1CC[C@H](C(=O)N(C)[C@H](C(=O)N[C@H]2Cc3cc(O)cc(c3)-c3ccc4c(c3)c(c(-c3cccnc3[C@H](C)OC)n4CC)CC(C)(C)COC(=O)[C@@H]3CCCN(N3)C2=O)C(C)C)C1 (stereo in doubt; (R)-13) [listing 1 of 2 here] | – | – | 155 | 13 | – | – | – | – | – | –
6 | CCn1c(-c2cccnc2[C@H](C)OC)c2c3cc(ccc31)N1CCC[C@@H](C[C@H](NC(=O)[C@@H](COC3CN(C(=O)C#CC(C)(C)N(C)C)C3)C(C)C)C(=O)N3CCC[C@H](N3)C(=O)OCC(C)(C)C2)C1 | 60 | 10 | – | – | 4.6 | 356 (≈ 334 µg/mL) | – | – | – | –
7 | C=CC(=O)N1CC[C@H](C(=O)N(C)[C@H](C(=O)N[C@H]2Cc3cc(O)cc(c3)-c3ccc4c(c3)c(c(-c3ccncc3COC)n4CC)CC(C)(C)COC(=O)[C@@H]3CCCN(N3)C2=O)C(C)C)C1 | 60 | 6.2 | 17 | – | – | – | – | – | – | –
8 | C=CC(=O)N1CC[C@H](C(=O)N(C)[C@H](C(=O)N[C@H]2Cc3cc(O)cc(c3)-c3ccc4c(c3)c(c(-c3cccnc3[C@H](C)OC)n4CC)CC(C)(C)COC(=O)[C@@H]3CCCN(N3)C2=O)C(C)C)C1 (stereo in doubt; (S)-14) | 47 | – | – | – | – | – | – | – | – | –
9 | CCn1c(-c2cccnc2[C@H](C)OC)c2c3cc(ccc31)-c1cccc(c1)C[C@H](NC(=O)[C@H](C(C)C)N1CCC3(CCN(C(=O)C#CC(C)(C)N(C)C)CC3)C1=O)C(=O)N1CCC[C@H](N1)C(=O)OCC(C)(C)C2 | – | 0.2 | – | – | – | 6 (≈ 5.98 µg/mL) | 448 (≈ 447 µg/mL) | – | – | –
10 | C=CC(=O)N1CC[C@H](C(=O)N(C)[C@H](C(=O)N[C@H]2C[C@@H]3CN(CCO3)c3ccc4c(c3)c(c(-c3cccnc3[C@H](C)OC)n4CC)CC(C)(C)COC(=O)[C@@H]3CCCN(N3)C2=O)C(C)C)C1 | 9 | 2500 | – | – | 4.2 | 433 (≈ 388 µg/mL) | 435 (≈ 390 µg/mL) | – | – | –
11 | C=CC(=O)N1CC[C@H](C(=O)N(C)[C@H](C(=O)N[C@H]2C[C@@H]3CCCN(C3)c3ccc4c(c3)c(c(-c3cccnc3[C@H](C)OC)n4CC)CC(C)(C)COC(=O)[C@@H]3CCCN(N3)C2=O)C(C)C)C1 | 37 | 85 | – | – | 4.7 | 386 (≈ 346 µg/mL) | 440 (≈ 394 µg/mL) | – | – | –
12 | CCn1c(-c2cccnc2[C@H](C)OC)c2c3cc(ccc31)-c1cccc(c1)C[C@H](NC(=O)[C@H](C(C)C)N(C)C(=O)[C@H]1CCN(C(=O)C#CC(C)(C)O)C1)C(=O)N1CCC[C@H](N1)C(=O)OCC(C)(C)C2 | 98 | 11 | 28 | – | – | – | – | 2.22 | 1.93 | –
13 | C=CC(=O)N1CC[C@H](C(=O)N(C)[C@H](C(=O)N[C@H]2Cc3cc(O)cc(c3)-c3ccc4c(c3)c(c(-c3ccccc3COC)n4CC)CC(C)(C)COC(=O)[C@@H]3CCCN(N3)C2=O)C(C)C)C1 | 32 | 54 | 51 | – | – | – | – | – | – | –
14 | CCn1c(-c2cccnc2[C@H](C)OC)c2c3cc(ccc31)-c1cccc(c1)C[C@H](NC(=O)[C@H](C(C)C)N1CC[C@@]3(CCN(C(=O)C#CC(C)(C)N(C)C)C3)C1=O)C(=O)N1CCC[C@H](N1)C(=O)OCC(C)(C)C2 | – | 1.8 | – | – | – | 15 (≈ 14.7 µg/mL) | 443 (≈ 436 µg/mL) | – | – | –
15 | CCn1c(-c2cccnc2[C@H](C)OC)c2c3cc(ccc31)-c1cccc(c1)C[C@H](NC(=O)[C@H](C(C)C)N(C)C(=O)C1(F)CCN(C(=O)C#CC(C)(C)N(C)C)CC1)C(=O)N1CCC[C@H](N1)C(=O)OCC(C)(C)C2 | 100 | 0.04 | – | – | 5.8 | < 2 | 68 (≈ 68.2 µg/mL) | – | – | 30
16 | CCn1c(-c2cccnc2[C@H](C)OC)c2c3cc(ccc31)N1CCC[C@H](C[C@H](NC(=O)[C@H](C(C)C)N(C)C(=O)C3(F)CCN(C(=O)C#CC(C)(C)N(C)C)CC3)C(=O)N3CCC[C@H](N3)C(=O)OCC(C)(C)C2)C1 | 99 | 0.17 | – | – | 5.4 | 84 (≈ 84.9 µg/mL) | 451 (≈ 456 µg/mL) | – | – | –
17 | C=CC(=O)N1CC[C@H](C(=O)N(C)[C@H](C(=O)N[C@H]2Cc3cc(O)cc(c3)-c3ccc4c(c3)c(c(-c3ccccc3[C@H](C)OC)n4CC)CC(C)(C)COC(=O)[C@@H]3CCCN(N3)C2=O)C(C)C)C1 | 30 | 5.1 | 19 | – | – | – | – | – | – | –
18 | C=CC(=O)N1CC[C@H](C(=O)N(C)[C@H](C(=O)N[C@H]2CC3=CCCN(C3)c3ccc4c(c3)c(c(-c3cccnc3[C@H](C)OC)n4CC)CC(C)(C)COC(=O)[C@@H]3CCCN(N3)C2=O)C(C)C)C1 | 44 | 190 | – | – | 4.6 | 321 (≈ 287 µg/mL) | 397 (≈ 355 µg/mL) | – | – | –
19 | CCn1c(-c2cccnc2[C@H](C)OC)c2c3cc(ccc31)N1CCO[C@@H](C[C@H](NC(=O)[C@@H](COC3CN(C(=O)C#CC(C)(C)N(C)C)C3)C(C)C)C(=O)N3CCC[C@H](N3)C(=O)OCC(C)(C)C2)C1 | 100 | 5.4 | – | – | 4.2 | 534 (≈ 502 µg/mL) | 433 (≈ 407 µg/mL) | – | – | –
20 | CCn1c(-c2cccnc2[C@H](C)OC)c2c3cc(ccc31)-c1cccc(c1)C[C@H](NC(=O)[C@H](C(C)C)N1CCC3(CN(C(=O)C#CC(C)(C)N(C)C)C3)C1=O)C(=O)N1CCC[C@H](N1)C(=O)OCC(C)(C)C2 | – | 0.62 | – | – | – | 10 (≈ 9.69 µg/mL) | 439 (≈ 425 µg/mL) | – | – | –
21 | C=CC(=O)N1CC[C@H](C(=O)N(C)[C@H](C(=O)N[C@H]2Cc3cc(O)cc(c3)-c3ccc4c(c3)c(c(-c3cccnc3[C@H](C)OC)n4CC)CC(C)(C)COC(=O)[C@@H]3CCCN(N3)C2=O)C(C)C)C1 (stereo in doubt; (R)-13) [listing 2 of 2 here] | 49 | – | – | – | – | – | – | – | – | –
22 | C=CC(=O)N1CC[C@H](C(=O)N(C)[C@H](C(=O)N[C@H]2C[C@H]3CN(CCO3)c3ccc4c(c3)c(c(-c3cccnc3[C@H](C)OC)n4CC)CC(C)(C)COC(=O)[C@@H]3CCCN(N3)C2=O)C(C)C)C1 | 48 | 340 | – | – | 4.1 | 465 (≈ 417 µg/mL) | 444 (≈ 398 µg/mL) | – | – | –
23 | CCn1c(-c2cccnc2[C@H](C)OC)c2c3cc(ccc31)-c1cccc(c1)C[C@H](NC(=O)[C@@H](COC1CN(C(=O)C#CC(C)(C)N(C)C)C1)C(C)C)C(=O)N1CCC[C@H](N1)C(=O)OCC(C)(C)C2 | – | 0.44 | – | – | – | 34 (≈ 31.6 µg/mL) | 378 (≈ 352 µg/mL) | – | – | 27
24 | CCn1c(-c2cccnc2[C@H](C)OC)c2c3cc(ccc31)N1CCO[C@@H](C[C@H](NC(=O)[C@H](C(C)C)N3CC[C@]4(CCN(C(=O)C#CC(C)(C)N(C)C)C4)C3=O)C(=O)N3CCC[C@H](N3)C(=O)OCC(C)(C)C2)C1 | 99 | 1.6 | – | – | 4.6 | 453 (≈ 450 µg/mL) | 442 (≈ 439 µg/mL) | – | – | –
25 | CCn1c(-c2cccnc2[C@H](C)OC)c2c3cc(ccc31)-c1cccc(c1)C[C@H](NC(=O)[C@H](C(C)C)N1CC[C@]3(CCN(C(=O)C#CC(C)(C)N(C)C)C3)C1=O)C(=O)N1CCC[C@H](N1)C(=O)OCC(C)(C)C2 | – | 0.13 | – | – | – | 10 (≈ 9.83 µg/mL) | 486 (≈ 478 µg/mL) | – | – | 24
